In the NIST ThermoML archive (doi:10.1016/j.fluid.2018.04.025):
Numbers after ± are expanded uncertainties.

Assay: xn = mol fraction of the nth substance listed
Details: 101 kPa, Liquid; for viscosity: Falling or rolling sphere viscometry; for speed of sound: Frequency=3 MHz, Sing-around technique in a fixed-path interferometer; for mass density: Vibrating tube method

CCCC[n+]1ccn(C)c1.O=S(=O)([N-]S(=O)(=O)C(F)(F)F)C(F)(F)F + CCCO
Details | mass density [kg/m3] | speed of sound [m/s] | viscosity [mPa·s]
298.15 K, x1 = 0.1034 | 997.935 ± 0.51 | 1181.5 ± 0.96 | 3.73 ± 0.6
298.15 K, x1 = 0.203 | 1117.34 ± 0.3 | 1181.2 ± 1 | 5.98 ± 0.6
298.15 K, x1 = 0.3043 | 1200.89 ± 0.31 | 1188.3 ± 1.1 | 8.11 ± 0.6
298.15 K, x1 = 0.409 | 1263.74 ± 0.42 | 1196.8 ± 1.2 | 10.82 ± 0.81
298.15 K, x1 = 0.5068 | 1308.36 ± 0.58 | 1203 ± 1.4 | 14.12 ± 0.81
298.15 K, x1 = 0.603 | 1343.44 ± 0.76 | 1209.4 ± 1.5 | 19.03 ± 0.82
298.15 K, x1 = 0.6981 | 1371.86 ± 0.98 | 1214.5 ± 1.7 | 24.41 ± 0.84
298.15 K, x1 = 0.809 | 1399.1 ± 1.3 | 1219.9 ± 1.8 | 31.43 ± 0.88
298.15 K, x1 = 0.8925 | 1416.56 ± 1.5 | 1223.7 ± 2 | 39.52 ± 0.93
298.15 K, x1 = 1 | 1436.02 ± 1.9 | 1227.3 ± 2.1 | 51.22 ± 0.97
303.15 K, x1 = 0.1034 | 993.513 ± 0.33 | 1167.2 ± 0.89 | 3.24 ± 0.6
303.15 K, x1 = 0.203 | 1112.85 ± 0.27 | 1168 ± 0.98 | 5.16 ± 0.6
303.15 K, x1 = 0.3043 | 1196.18 ± 0.32 | 1175.7 ± 1.1 | 6.94 ± 0.6
303.15 K, x1 = 0.409 | 1259 ± 0.43 | 1184.7 ± 1.2 | 9.22 ± 0.61
303.15 K, x1 = 0.5068 | 1303.62 ± 0.58 | 1191.2 ± 1.4 | 11.91 ± 0.81
303.15 K, x1 = 0.603 | 1338.71 ± 0.76 | 1197.8 ± 1.5 | 16.24 ± 0.82
303.15 K, x1 = 0.6981 | 1367.11 ± 0.97 | 1203.2 ± 1.7 | 20.52 ± 0.83
303.15 K, x1 = 0.809 | 1394.38 ± 1.3 | 1208.6 ± 1.8 | 26.11 ± 0.85
303.15 K, x1 = 0.8925 | 1411.81 ± 1.5 | 1212.6 ± 2 | 32.53 ± 0.89
303.15 K, x1 = 1 | 1431.22 ± 1.9 | 1216.3 ± 2.1 | 41.91 ± 0.96
308.15 K, x1 = 0.1034 | 989.047 ± 0.33 | 1152.9 ± 0.89 | 2.85 ± 0.6
308.15 K, x1 = 0.203 | 1108.26 ± 0.27 | 1154.8 ± 0.98 | 4.5 ± 0.6
308.15 K, x1 = 0.3043 | 1191.48 ± 0.31 | 1163.1 ± 1.1 | 6.01 ± 0.6
308.15 K, x1 = 0.409 | 1254.22 ± 0.43 | 1172.6 ± 1.2 | 7.94 ± 0.6
308.15 K, x1 = 0.5068 | 1298.84 ± 0.57 | 1179.5 ± 1.4 | 10.21 ± 0.81
308.15 K, x1 = 0.603 | 1333.94 ± 0.76 | 1186.3 ± 1.5 | 13.72 ± 0.81
308.15 K, x1 = 0.6981 | 1362.35 ± 0.96 | 1191.8 ± 1.7 | 17.43 ± 0.82
308.15 K, x1 = 0.809 | 1389.63 ± 1.2 | 1197.5 ± 1.8 | 22.13 ± 0.84
308.15 K, x1 = 0.8925 | 1407.06 ± 1.5 | 1201.6 ± 2 | 27.21 ± 0.86
308.15 K, x1 = 1 | 1426.43 ± 1.8 | 1205.5 ± 2.1 | 34.63 ± 0.91
313.15 K, x1 = 0.1034 | 984.572 ± 0.33 | 1138.7 ± 0.89 | 2.53 ± 0.6
313.15 K, x1 = 0.203 | 1103.58 ± 0.27 | 1141.7 ± 0.97 | 3.95 ± 0.6
313.15 K, x1 = 0.3043 | 1186.72 ± 0.31 | 1150.7 ± 1.1 | 5.25 ± 0.6
313.15 K, x1 = 0.409 | 1249.43 ± 0.42 | 1160.6 ± 1.2 | 6.9 ± 0.6
313.15 K, x1 = 0.5068 | 1294.03 ± 0.57 | 1167.8 ± 1.4 | 8.85 ± 0.61
313.15 K, x1 = 0.603 | 1329.15 ± 0.75 | 1175 ± 1.5 | 11.93 ± 0.81
313.15 K, x1 = 0.6981 | 1357.57 ± 0.96 | 1180.7 ± 1.7 | 14.94 ± 0.82
313.15 K, x1 = 0.809 | 1384.85 ± 1.2 | 1186.4 ± 1.8 | 18.72 ± 0.83
313.15 K, x1 = 0.8925 | 1402.29 ± 1.5 | 1190.7 ± 2 | 22.94 ± 0.85
313.15 K, x1 = 1 | 1421.64 ± 1.8 | 1194.7 ± 2.1 | 28.93 ± 0.88
318.15 K, x1 = 0.1034 | 979.997 ± 0.33 | 1124.5 ± 0.88 | 2.27 ± 0.6
318.15 K, x1 = 0.203 | 1098.85 ± 0.27 | 1128.7 ± 0.97 | 3.69 ± 0.6
318.15 K, x1 = 0.3043 | 1181.93 ± 0.31 | 1138.3 ± 1.1 | 4.84 ± 0.6
318.15 K, x1 = 0.409 | 1244.67 ± 0.42 | 1148.8 ± 1.2 | 6.15 ± 0.6
318.15 K, x1 = 0.5068 | 1289.19 ± 0.57 | 1156.3 ± 1.4 | 7.74 ± 0.6
318.15 K, x1 = 0.603 | 1324.35 ± 0.74 | 1163.7 ± 1.5 | 10.34 ± 0.81
318.15 K, x1 = 0.6981 | 1352.76 ± 0.95 | 1169.5 ± 1.6 | 13.01 ± 0.81
318.15 K, x1 = 0.809 | 1380.05 ± 1.2 | 1175.5 ± 1.8 | 16.35 ± 0.82
318.15 K, x1 = 0.8925 | 1397.5 ± 1.5 | 1180 ± 2 | 19.74 ± 0.83
318.15 K, x1 = 1 | 1416.84 ± 1.8 | 1184 ± 2.1 | 24.63 ± 0.86
323.15 K, x1 = 0.1034 | 975.381 ± 0.65 | 1110.5 ± 0.85 | 2.03 ± 0.6
323.15 K, x1 = 0.203 | 1094.03 ± 0.42 | 1115.8 ± 0.96 | 2.98 ± 0.6
323.15 K, x1 = 0.3043 | 1177.02 ± 0.38 | 1126 ± 1.1 | 3.93 ± 0.6
323.15 K, x1 = 0.409 | 1239.67 ± 0.45 | 1137 ± 1.2 | 5.25 ± 0.6
323.15 K, x1 = 0.5068 | 1284.24 ± 0.57 | 1144.8 ± 1.4 | 6.82 ± 0.6
323.15 K, x1 = 0.603 | 1319.4 ± 0.74 | 1152.6 ± 1.5 | 9.13 ± 0.61
323.15 K, x1 = 0.6981 | 1347.82 ± 0.95 | 1158.6 ± 1.6 | 11.42 ± 0.81
323.15 K, x1 = 0.809 | 1375.13 ± 1.2 | 1164.6 ± 1.8 | 14.23 ± 0.82
323.15 K, x1 = 0.8925 | 1392.58 ± 1.5 | 1169.3 ± 2 | 17.01 ± 0.83
323.15 K, x1 = 1 | 1411.89 ± 1.8 | 1173.5 ± 2.1 | 21.11 ± 0.84
